The molecules below were run on MDA-231 cancer cells (assay: Inhibition of proliferation assay, cell confluence (IncuCyte live cell imaging)). Details: MDA-231 cells, concentration 10 uM; relative confluence normalised to time zero, images every 3 h over 4-5 d.
Format: cell-based
From the text: Inhibition of Proliferation Assay Cell Confluence The confluence value is a surrogate for cell proliferation and growth. The value is expressed as a percent confluence, which represents the fraction of culture dish-surface that is occupied by cells. As the number of cells in the dish increases over time due to proliferation, so will their coverage of that surface increase. Expansion of the cell population on the cell culture-dish surface and confluence have mostly a linear relationship until the cells on the plate surface begin to reach saturation or maximum density. Confluence is determined based on image analysis. Image based software can identify objects in the image field base on changes to pixel density in a grey scale image. The software can then assign a mask to those pixels within the object. Objects can be ‘gated’ out based on size and shape. To determine cell confluence, images of cells are first masked as objects. The surface area of the image that is masked is measured and compared to the total surface area of the culture dish surface to obtain a percent confluence. MDA-231 cancer cells were obtained from ATCC. Cells were cultured in Dulbecco's Modified Eagle Medium (DMEM) supplemented with 10% Fetal Bovine Serum (FBS), 2 mM Glutamax, 1 mM Non Essential Amino Acid (NEAA) solution and 1 mM sodium pyruvate. Compounds were dissolved in DMSO at 10 mM and diluted in cellular medium and tested at 10 μM (micromolar). Final DMSO concentrations were <0.1%. Images were acquired with an IncuCyte Live Cell Imaging microscopy (Essen Bioscience) at every 3 h under cell culture conditions with 10× objective over 4-5 d. Cell confluence was calculated from one field of view per well using the IncuCyte in-built algorithm. Relative confluence values were obtained by normalising each value to the time zero value in each sample.

Row | Compound | % Confluence
1 | CC[C@H]1OC(=O)[C@H](C)[C@@H](O)[C@H](C)[C@@H](O)[C@](C)(O)C[C@@H](C)CN(C(=O)CCCCCCCCCCCCC[P+](c2ccccc2)(c2ccccc2)c2ccccc2)[C@H](C)[C@@H](O)[C@]1(C)O [Example 16, {14-[(2R,3S,4R,5R,8R,10R,11R,12S,13S,14R)-2-ethyl-3,4,10,11,13-pentahydroxy-3,5,8,10,12,14-hexamethyl-15-oxo-1-oxa-6-azacyclopentadecan-6-yl]-14-oxotetradecyl}triphenylphosphonium hexafluorophosphate(V)] | 9.9%
2 | CC[C@H]1OC(=O)[C@H](C)[C@@H](O[C@H]2C[C@@](C)(OC)[C@@H](O)[C@H](C)O2)[C@H](C)[C@@H](O[C@@H]2O[C@H](C)C[C@H](N(C)C)[C@H]2O)[C@](C)(O)C[C@@H](C)CN(C)[C@H](C)[C@@H](OC(=O)NCCCCCC[P+](c2ccccc2)(c2ccccc2)c2ccccc2)[C@]1(C)O.[Br-] [Example 17, (2R,3R,4R,5R,8R,10R,11R,12S,13S,14R)-11-{[(2S,3R,4S,6R)-4-(dimethylamino)-3-hydroxy-6-methyloxan-2-yl]oxy}-2-ethyl-3,10-dihydroxy-13-{[(2R,4R,5S,6S)-5-hydroxy-4-methoxy-4,6-dimethyloxan-2-yl]oxy}-3,5,6,8,10,12,14-heptamethyl-15-oxo-1-oxa-6-azacyclopentadecan-4-yl N-[6-(triphenylphosphoniumyl)hexyl]carbamate bromide] | 82.6%
3 | CC[C@H]1OC(=O)[C@H](C)[C@@H](O[C@H]2C[C@@](C)(OC)[C@@H](O)[C@H](C)O2)[C@H](C)[C@@H](O[C@@H]2O[C@H](C)C[C@H](N(C)C)[C@H]2OC(C)=O)[C@](C)(O)C[C@@H](C)CN(C)[C@H](C)[C@@H](OC(=O)NCCCCCCCCCC[P+](c2ccccc2)(c2ccccc2)c2ccccc2)[C@]1(C)O.[Br-] [Example 18, (2S,3R,4S,6R)-4-(dimethylamino)-2-{[(2R,3R,4R,5R,8R,10R,11R,12S,13S,14R)-2-ethyl-3,10-dihydroxy-13-{[(2R,4R,5S,6S)-5-hydroxy-4-methoxy-4,6-dimethyloxan-2-yl]oxy}-3,5,6,8,10,12,14-heptamethyl-15-oxo-4-({[10-(triphenylphosphosphoniumyl)decyl]carbamoyl}oxy)-1-oxa-6-azacyclopentadecan-11-yl]oxy}-6-methyloxan-3-yl acetate bromide] | 9.6%
4 | CC[C@H]1OC(=O)[C@H](C)[C@@H](O[C@H]2C[C@@](C)(OC)[C@@H](O)[C@H](C)O2)[C@H](C)[C@@H](O[C@@H]2O[C@H](C)C[C@H](N(C)C)[C@H]2O)[C@](C)(O)C[C@@H](C)CN(C)[C@H](C)[C@@H](OC(=O)NCCCCCCCCCC[P+](c2ccccc2)(c2ccccc2)c2ccccc2)[C@]1(C)O.[Br-] [Example 19, (2R,3R,4R,5R,8R,10R,11R,12S,13S,14R)-11-{[(2S,3R,4S,6R)-4-(dimethylamino)-3-hydroxy-6-methyloxan-2-yl]oxy}-2-ethyl-3,10-dihydroxy-13-{[(2R,4R,5S,6S)-5-hydroxy-4-methoxy-4,6-dimethyloxan-2-yl]oxy}-3,5,6,8,10,12,14-heptamethyl-15-oxo-1-oxa-6-azacyclopentadecan-4-yl N-[10-(triphenylphosphoniumyl)decyl]carbamate bromide] | 9.7%
5 | CC[C@H]1OC(=O)[C@H](C)[C@@H](O[C@H]2C[C@@](C)(OC)[C@@H](O)[C@H](C)O2)[C@H](C)[C@@H](O[C@@H]2O[C@H](C)C[C@H](N(C)C)[C@H]2O)[C@](C)(O)C[C@@H](C)CN(C)[C@H](C)[C@@H](OC(=O)NCCCCCCCC[P+](c2ccccc2)(c2ccccc2)c2ccccc2)[C@]1(C)O.[Br-] [Example 20, (2R,3R,4R,5R,8R,10R,11R,12S,13S,14R)-11-{[(2S,3R,4S,6R)-4-(dimethylamino)-3-hydroxy-6-methyloxan-2-yl]oxy}-2-ethyl-3,10-dihydroxy-13-{[(2R,4R,5S,6S)-5-hydroxy-4-methoxy-4,6-dimethyloxan-2-yl]oxy}-3,5,6,8,10,12,14-heptamethyl-15-oxo-1-oxa-6-azacyclopentadecan-4-yl N-[8-(triphenylphosphoniumyl)octyl]carbamate bromide] | 13.5%
6 | CC[C@H]1OC(=O)[C@H](C)[C@@H](O)[C@H](C)[C@@H](O[C@@H]2O[C@H](C)C[C@H](N(C)C)[C@H]2O)[C@](C)(O)C[C@@H](C)CN(C(=O)CCCCCCCCCCCCC[P+](c2ccccc2)(c2ccccc2)c2ccccc2)[C@H](C)[C@@H](O)[C@]1(C)O [Example 21, {14-[(2R,3S,4R,5R,8R,10R,11R,12S,13S,14R)-11-{[(2S,3R,4S,6R)-4-(dimethylamino)-3-hydroxy-6-methyloxan-2-yl]oxy}-2-ethyl-3,4,10,13-tetrahydroxy-3,5,8,10,12,14-hexamethyl-15-oxo-1-oxa-6-azacyclopentadecan-6-yl]-14-oxotetradecyl}triphenylphosphonium hexafluorophosphate(V)] | 8%
7 | CC[C@H]1OC(=O)[C@H](C)[C@@H](O[C@H]2C[C@@](C)(OC)[C@@H](O)[C@H](C)O2)[C@H](C)[C@@H](O[C@@H]2O[C@H](C)C[C@H](N(C)C)[C@H]2O)[C@](C)(O)C[C@@H](C)CN(CCCCCC(=O)N(C)CC[P+](c2ccccc2)(c2ccccc2)c2ccccc2)[C@H](C)[C@@H](O)[C@]1(C)O.[Br-] [Example 22] | 102.7%
8 | CC[C@H]1OC(=O)[C@H](C)[C@@H](O[C@H]2C[C@@](C)(OC)[C@@H](O)[C@H](C)O2)[C@H](C)[C@@H](O[C@@H]2O[C@H](C)C[C@H](N(C)C)[C@H]2O)[C@](C)(O)C[C@@H](C)CN(C(=O)CCOCCOCC[P+](c2ccccc2)(c2ccccc2)c2ccccc2)[C@H](C)[C@@H](O)[C@]1(C)O.[Br-] [Example 23, [2-(2-{3-[(2R,3S,4R,5R,8R,10R,11R,12S,13S,14R)-11-{[(2S,3R,4S,6R)-4-(dimethylamino)-3-hydroxy-6-methyloxan-2-yl]oxy}-2-ethyl-3,4,10-trihydroxy-13-{[(2R,4R,5S,6S)-5-hydroxy-4-methoxy-4,6-dimethyloxan-2-yl]oxy}-3,5,6,8,10,12,14-hexamethyl-15-oxo-1-oxa-6-azacyclopentadecan-6-yl]-3-oxopropoxy}ethoxy)ethyl]triphenylphosphonium bromide] | 118%
9 | CC[C@H]1OC(=O)[C@H](C)[C@@H](O[C@H]2C[C@@](C)(OC)[C@@H](O)[C@H](C)O2)[C@H](C)[C@@H](O[C@@H]2O[C@H](C)C[C@H](N(C)C)[C@H]2O)[C@](C)(O)C[C@@H](C)CN(C(=O)CCCCN(C)CC[P+](c2ccccc2)(c2ccccc2)c2ccccc2)[C@H](C)[C@@H](O)[C@]1(C)O.[Br-] [Example 24, [2-({5-[(2R,3S,4R,5R,8R,10R,11R,12S,13S,14R)-11-{[(2S,3R,4S,6R)-4-(dimethylamino)-3-hydroxy-6-methyloxan-2-yl]oxy}-2-ethyl-3,4,10-trihydroxy-13-{[(2R,4R,5S,6S)-5-hydroxy-4-methoxy-4,6-dimethyloxan-2-yl]oxy}-3,5,6,8,10,12,14-hexamethyl-15-oxo-1-oxa-6-azacyclopentadecan-6-yl]-5-oxopentyl}(methyl)amino)ethyl]triphenylphosphonium bromide] | 49.1%
10 | CC[C@H]1OC(=O)[C@H](C)[C@@H](O[C@H]2C[C@@](C)(OC)[C@@H](O)[C@H](C)O2)[C@H](C)[C@@H](O[C@@H]2O[C@H](C)C[C@H](N(C)C)[C@H]2O)[C@](C)(O)C[C@@H](C)CN(C(=O)CCCCCCCCCC[P+](c2ccccc2)(c2ccccc2)c2ccccc2)[C@H](C)[C@@H](O)[C@]1(C)O.[Cl-] [Example 25, {11-[(2R,3S,4R,5R,8R,10R,11R,12S,13S,14R)-11-{[(2S,3R,4S,6R)-4-(dimethylamino)-3-hydroxy-6-methyloxan-2-yl]oxy}-2-ethyl-3,4,10-trihydroxy-13-{[(2R,4R,5S,6S)-5-hydroxy-4-methoxy-4,6-dimethyloxan-2-yl]oxy}-3,5,8,10,12,14-hexamethyl-15-oxo-1-oxa-6-azacyclopentadecan-6-yl]-11-oxoundecyl}triphenylphosphonium chloride] | 4.4%

From patent US11560395B2, “Azithromycin derivatives containing a phosphonium ion as anticancer agents” (Rising Tide Foundation, priority 2017, dated 2023)
